Laboratory results taken from patent publication US20020019527A1 (priority 2000, published 2002).
Counter-ions that a name gives are not always drawn. Like-named read-outs stand apart in the source and are kept apart here.

Molecular target: T1, Farnesyltransferase (FTase) (Bos taurus, UniProt P29702+P49355)
T1 construct: precipitation from a beef brain homogenate; from tissue; host or cells: bovine brain
Test: Farnesyltransferase inhibition (scintillation proximity assay, [3H]-FPP / biotin-K-ras peptide)
Format: biochemical, bovine
Method in brief: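 Read-out: [3H]-FPP prenylation of a biotinylated K-ras peptide by SPA, measured 1 h after quenching. Enzyme: FTase purified from bovine brain (ammonium sulfate cut, DEAE Sepharose), free of GGTase I and II. Test compounds in ethanol, diluted 10-fold into the reaction.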

[1] = compound at 10^−6 M, bovine FTase, 37° C., 30 minutes

T1 sequence (P49355 whole entry, one chain of several): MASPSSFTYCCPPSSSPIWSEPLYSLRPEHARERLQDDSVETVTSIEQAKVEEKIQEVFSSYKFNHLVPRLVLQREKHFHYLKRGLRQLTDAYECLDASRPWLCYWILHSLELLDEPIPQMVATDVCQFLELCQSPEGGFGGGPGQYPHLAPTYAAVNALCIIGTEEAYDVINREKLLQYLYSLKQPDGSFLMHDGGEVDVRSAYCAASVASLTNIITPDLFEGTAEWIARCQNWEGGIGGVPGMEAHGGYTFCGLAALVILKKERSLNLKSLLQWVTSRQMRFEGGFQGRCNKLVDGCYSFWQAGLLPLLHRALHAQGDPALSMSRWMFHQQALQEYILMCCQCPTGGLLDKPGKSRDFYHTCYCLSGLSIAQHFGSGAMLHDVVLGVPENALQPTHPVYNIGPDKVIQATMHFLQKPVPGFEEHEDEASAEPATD

| Structure (SMILES) | inhibition at 1 µM [1] | further results |
| --- | --- | --- |
| COC(=O)c1ccc(COC(c2ccc(C#N)c(-c3ccccc3C)c2)c2cncn2C)cc1 (centres unmarked) [Example 130, methyl 4-(((6-cyano-2′-methyl(1,1′-biphenyl)-3-yl)(1-methyl-1H-imidazol-5-yl)methoxy)methyl)benzoate hydrochloride] | 97% |  |
| Cc1ccccc1-c1cc(C(OCc2ccccc2Cl)c2cncn2C)ccc1C#N (centres unmarked) [Example 132, 5-(((2-chlorobenzyl)oxy)(1-methyl-1H-imidazol-5-yl)methyl)-2′-methyl(1,1′-biphenyl)-2-carbonitrile hydrochloride] | 94% |  |
| Cc1ccccc1-c1cc(C(OCc2ccc(Cl)cc2)c2cncn2C)ccc1C#N (centres unmarked) [Example 133, 5-(((4-chlorobenzyl)oxy)(1-methyl-1H-imidazol-5-yl)methyl)-2′-methyl(1,1′-biphenyl)-2-carbonitrile hydrochloride] | 97% |  |
| COc1cccc(COC(c2ccc(C#N)c(-c3ccccc3C)c2)c2cncn2C)c1 (centres unmarked) [Example 134, 5-(((3-methoxybenzyl)oxy)(1-methyl-1H-imidazol-5-yl)methyl)-2′-methyl(1,1′-biphenyl)-2-carbonitrile hydrochloride] | 93% |  |
| Cc1ccccc1COC(c1ccc(C#N)c(-c2ccccc2C)c1)c1cncn1C.Cl (centres unmarked) [Example 135] |  | % Inhibition at 10^−6M: 94% |
| Cc1ccccc1-c1cc(C(OCc2cccc(F)c2)c2cncn2C)ccc1C#N (centres unmarked) [Example 136, 5-(((3-fluorobenzyl)oxy)(1-methyl-1H-imidazol-5-yl)methyl)-2′-methyl(1,1′-biphenyl)-2-carbonitrile hydrochloride] | 95% |  |
| Cc1ccccc1-c1cc(C(OCc2cc(Cl)nc(Cl)c2)c2cncn2C)ccc1C#N (centres unmarked) [Example 137, 5-(((2,6-dichloro-4-pyridinyl)methoxy)(1-methyl-1H-imidazol-5-yl)methyl)-2′-methyl(1,1′-biphenyl)-2-carbonitrile hydrochloride] | 96% |  |
| Cc1ccccc1-c1cc(C(OCc2ccccc2F)c2cncn2C)ccc1C#N (centres unmarked) [Example 138, 5-(((2-fluorobenzyl)oxy)(1-methyl-1H-imidazol-5-yl)methyl)-2′-methyl(1,1′-biphenyl)-2-carbonitrile hydrochloride] | 92% |  |
| Cc1ccccc1-c1cc(C(OCc2ccc(C(F)(F)F)cc2)c2cncn2C)ccc1C#N.Cl (centres unmarked) [Example 139] |  | % Inhibition at 10^−6M: 97% |
| Cc1cc(C)cc(COC(c2ccc(C#N)c(-c3ccccc3C)c2)c2cncn2C)c1 (centres unmarked) [Example 140, 5-(((3,5-dimethylbenzyl)oxy)(1-methyl-1H-imidazol-5-yl)methyl)-2′-methyl(1,1′-biphenyl)-2-carbonitrile hydrochloride] | 94% |  |
| Cc1ccccc1-c1cc(C(OCc2ccc(F)cc2C(F)(F)F)c2cncn2C)ccc1C#N (centres unmarked) [Example 141, 5-(((4-fluoro-2-(trifluoromethyl)benzyl)oxy)(1-methyl-1H-imidazol-5-yl)methyl)-2′-methyl(1,1′-biphenyl)-2-carbonitrile hydrochloride] | 95% |  |
| Cc1ccccc1-c1cc(C(OCc2ccccc2[N+](=O)[O-])c2cncn2C)ccc1C#N.Cl (centres unmarked) [Example 142] |  | % Inhibition at 10^−6M: 94% |
| Cc1ccccc1-c1cc(C(OCc2cccc(OC(F)(F)F)c2)c2cncn2C)ccc1C#N.Cl (centres unmarked) [Example 143] |  | % Inhibition at 10^−6M: 97% |
| Cc1cc(COC(c2ccc(C#N)c(-c3ccccc3C)c2)c2cncn2C)c(C#N)cc1C#N (centres unmarked) [Example 144, 4-(((6-cyano-2′-methyl(1,1′-biphenyl)-3-yl)(1-methyl-1H-imidazol-5-yl)methoxy)methyl)-6-methylisophthalonitrile hydrochloride] | 96% |  |
| Cc1ccccc1-c1cc(C(OCc2ccc(-c3ccccc3C#N)cc2)c2cncn2C)ccc1C#N (centres unmarked) [Example 145, 5-(((2′-cyano(1,1′-biphenyl)-4-yl)methoxy)(1-methyl-1H-imidazol-5-yl)methyl)-2′-methyl(1,1′-biphenyl)-2-carbonitrile hydrochloride] | 97% |  |
| COC(=O)c1cccc(COC(c2ccc(C#N)c(-c3ccccc3C)c2)c2cncn2C)c1 (centres unmarked) [Example 146, methyl 3-(((6-cyano-2′-methyl(1,1′-biphenyl)-3-yl)(1-methyl-1H-imidazol-5-yl)methoxy)methyl)benzoate hydrochloride] | 93% |  |
| Cc1ccccc1-c1cc(C(OCc2ccc(F)c(F)c2)c2cncn2C)ccc1C#N (centres unmarked) [Example 147, 5-(((3,4-difluorobenzyl)oxy)(1-methyl-1H-imidazol-5-yl)methyl)-2′-methyl(1,1′-biphenyl)-2-carbonitrile hydrochloride] | 96% |  |
| COc1cc(COC(c2ccc(C#N)c(-c3ccccc3C)c2)c2cncn2C)cc(OC)c1OC.Cl (centres unmarked) [Example 148] |  | % Inhibition at 10^−6M: 95% |
| Cc1ccccc1-c1cc(C(OCc2cccc3cccnc23)c2cncn2C)ccc1C#N.Cl (centres unmarked) [Example 149] |  | % Inhibition at 10^−6M: 93% |
| COc1cc(COC(c2ccc(C#N)c(-c3ccccc3C)c2)c2cncn2C)cc(OC)c1 (centres unmarked) [Example 150, 5-(((3,5-dimethoxybenzyl)oxy)(1-methyl-1H-imidazol-5-yl)methyl)-2′-methyl(1,1′-biphenyl)-2-carbonitrile hydrochloride] | 93% |  |
| Cc1ccccc1-c1cc(C(OCc2ccc(S(C)(=O)=O)cc2)c2cncn2C)ccc1C#N.Cl (centres unmarked) [Example 151] |  | % Inhibition at 10^−6M: 94% |
| Cc1cc(C)cc(COC(c2ccc(C#N)c(-c3ccccc3C)c2)c2cncn2C)c1.Cl (centres unmarked) [Example 158, 5-(((3,5-dimethylbenzyl)oxy)(1-methyl-1H-imidazol-5-yl)methyl)-2′-methyl(1,1′-biphenyl)-2-carbonitrile hydrochloride] |  | % Inhibition at 10^−6M (compound at 10^−6 M, bovine FTase, 37° C., 30 minutes, hydrochloride): 95% |
| Cc1ccccc1-c1cc(C(OCc2cc([N+](=O)[O-])cc3c2OCOC3)c2cncn2C)ccc1C#N.Cl (centres unmarked) [Example 168] |  | % Inhibition at 10^−6M: 96% |

Further lines, with some results ahead:

| inhibition at 1 µM [1] | Structure (SMILES) | further results |
| --- | --- | --- |
| 89% | Cc1ccccc1-c1cc(C(OCc2cc3c(cc2Cl)OCO3)c2cncn2C)ccc1C#N (centres unmarked) [Example 152, 5-(((6-chloro-1,3-benzodioxol-5-yl)methoxy)(1-methyl-1H-imidazol-5-yl)methyl)-2′-methyl(1,1′-biphenyl)-2-carbonitrile hydrochloride] |  |
| 92% | Cc1ccccc1-c1cc(C(OCc2ccc(C(C)C)cc2)c2cncn2C)ccc1C#N (centres unmarked) [Example 153, 5-(((4-isopropylbenzyl)oxy)(1-methyl-1H-imidazol-5-yl)methyl)-2′-methyl(1,1′-biphenyl)-2-carbonitrile hydrochloride] |  |
| 95% | Cc1ccc(COC(c2ccc(C#N)c(-c3ccccc3C)c2)c2cncn2C)cc1C (centres unmarked) [Example 154, 5-(((3,4-dimethylbenzyl)oxy)(1-methyl-1H-imidazol-5-yl)methyl)-2′-methyl(1,1′-biphenyl)-2-carbonitrile hydrochloride] |  |
| 92% | Cc1ccccc1-c1cc(C(OCc2ccc(OCc3ccccc3)cc2)c2cncn2C)ccc1C#N (centres unmarked) [Example 155, 5-(((4-(benzyloxy)benzyl)oxy)(1-methyl-1H-imidazol-5-yl)methyl)-2′-methyl(1,1′-biphenyl)-2-carbonitrile hydrochloride] |  |
| 92% | Cc1ccccc1-c1cc(C(OCc2cc(F)cc3c2OCOC3)c2cncn2C)ccc1C#N (centres unmarked) [Example 156, 5-(((6-fluoro-4H-1,3-benzodioxin-8-yl)methoxy)(1-methyl-1H-imidazol-5-yl)methyl)-2′-methyl(1,1′-biphenyl)-2-carbonitrile hydrochloride] |  |
| 97% | Cc1ccccc1-c1cc(C(OCc2ccc(Cl)cc2Cl)c2cncn2C)ccc1C#N (centres unmarked) [Example 157, 5-(((2,4-dichlorobenzyl)oxy)(1-methyl-1H-imidazol-5-yl)methyl)-2′-methyl(1,1′-biphenyl)-2-carbonitrile hydrochloride] |  |
| 91% | Cc1ccccc1-c1cc(C(OCc2noc(C(C)(C)C)n2)c2cncn2C)ccc1C#N (centres unmarked) [Example 159, 5-(((5-(tert-butyl)-1,2,4-oxadiazol-3-yl)methoxy)(1-methyl-1H-imidazol-5-yl)methyl)-2′-methyl(1,1′-biphenyl)-2-carbonitrile hydrochloride] |  |
| 96% | Cc1ccccc1-c1cc(C(OCc2ccc(I)cc2)c2cncn2C)ccc1C#N (centres unmarked) [Example 160, 5-(((4-iodobenzyl)oxy)(1-methyl-1H-imidazol-5-yl)methyl)-2′-methyl(1,1′-biphenyl)-2-carbonitrile hydrochloride] |  |
| 96% | Cc1ccccc1-c1cc(C(OCc2ccc(-c3ccccc3)cc2)c2cncn2C)ccc1C#N (centres unmarked) [Example 161, 5-(((1,1′-biphenyl)-4-ylmethoxy)(1-methyl-1H-imidazol-5-yl)methyl)-2′-methyl(1,1′-biphenyl)-2-carbonitrile hydrochloride] |  |
| 94% | Cc1ccccc1-c1cc(C(OCc2csc(-c3ccc(Cl)cc3)n2)c2cncn2C)ccc1C#N (centres unmarked) [Example 162, 5-(((2-(4-chlorophenyl)-1,3-thiazol-4-yl)methoxy)(1-methyl-1H-imidazol-5-yl)methyl)-2′-methyl(1,1′-biphenyl)-2-carbonitrile hydrochloride] |  |
| 84% | COc1ccccc1-c1nc(COC(c2ccc(C#N)c(-c3ccccc3C)c2)c2cncn2C)no1 (centres unmarked) [Example 163, 5-(((5-(2-methoxyphenyl)-1,2,4-oxadiazol-3-yl)methoxy)(1-methyl-1H-imidazol-5-yl)methyl)-2′-methyl(1,1-biphenyl)-2-carbonitrile hydrochloride] |  |
| 99% | Cc1ccccc1-c1cc(C(OCc2ccc(Cl)cc2[N+](=O)[O-])c2cncn2C)ccc1C#N (centres unmarked) [Example 164, 5-(((4-chloro-2-nitrobenzyl)oxy)(1-methyl-1H-imidazol-5-yl)methyl)-2′-methyl(1,1′-biphenyl)-2-carbonitrile hydrochloride] |  |
